From paper PMC10613692, “Central and peripheral analgesic active components of triterpenoid saponins from Stauntonia chinensis and their action mechanism” (Frontiers in Pharmacology, 2023)

Experiments:
Assay type in all cases: cell-based
[1] = target: T1, transient receptor potential vanilloid 1 (TRPV1) (Rattus norvegicus, UniProt O35433); assay: whole-cell patch clamp of capsaicin-induced TRPV1 currents in rat DRG neurons; capsaicin concentration curves with and without C9
T1 construct: native channel in rat DRG neurons
T1 sequence (O35433 whole entry): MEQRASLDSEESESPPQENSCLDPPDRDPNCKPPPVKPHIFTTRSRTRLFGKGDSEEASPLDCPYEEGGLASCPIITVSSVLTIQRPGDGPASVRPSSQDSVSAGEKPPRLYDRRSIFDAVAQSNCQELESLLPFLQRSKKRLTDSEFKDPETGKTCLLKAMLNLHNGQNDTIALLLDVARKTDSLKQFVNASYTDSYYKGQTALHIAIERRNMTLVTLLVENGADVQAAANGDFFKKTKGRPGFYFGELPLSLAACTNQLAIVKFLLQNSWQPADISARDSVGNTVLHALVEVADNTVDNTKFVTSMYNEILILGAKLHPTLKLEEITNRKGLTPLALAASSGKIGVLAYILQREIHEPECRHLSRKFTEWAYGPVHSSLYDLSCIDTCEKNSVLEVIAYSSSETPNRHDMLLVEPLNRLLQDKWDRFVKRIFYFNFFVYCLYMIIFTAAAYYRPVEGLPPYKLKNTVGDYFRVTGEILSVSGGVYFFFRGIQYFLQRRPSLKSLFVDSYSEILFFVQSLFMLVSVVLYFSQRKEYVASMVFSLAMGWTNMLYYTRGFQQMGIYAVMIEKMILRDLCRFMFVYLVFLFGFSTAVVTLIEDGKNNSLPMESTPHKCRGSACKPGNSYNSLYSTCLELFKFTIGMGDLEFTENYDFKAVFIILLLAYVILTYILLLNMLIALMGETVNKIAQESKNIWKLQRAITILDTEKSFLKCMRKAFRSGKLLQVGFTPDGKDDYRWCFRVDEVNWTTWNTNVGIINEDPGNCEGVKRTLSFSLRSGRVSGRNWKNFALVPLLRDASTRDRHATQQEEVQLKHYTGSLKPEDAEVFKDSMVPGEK
Description: whole-cell patch clamp of capsaicin-induced TRPV1 currents in rat DRG neurons; capsaicin concentration curves with and without C9 on transient receptor potential vanilloid 1 (TRPV1) | Concentration dependence curve of the inhibition on CAP-induced TRPV1 currents of C9.

[2] = target: T1, transient receptor potential vanilloid 1 (TRPV1); assay: whole-cell patch clamp in rat DRG neurons, capsaicin concentration-response ([…])
[3] = target: T1, transient receptor potential vanilloid 1 (TRPV1); assay: whole-cell patch clamp of capsaicin-induced currents in rat DRG neurons, single concentration ([…])

## C[C@@H]1O[C@@H](O[C@H]2[C@H](O)[C@@H](O)[C@H](OC[C@H]3O[C@@H](OC(=O)[C@]45CCC(C)(C)C[C@H]4C4=CC[C@@H]6[C@@]7(C)CC[C@H](O[C@@H]8OC[C@H](O)[C@H](O)[C@H]8O)[C@@](C)(CO)[C@@H]7CC[C@@]6(C)[C@]4(C)CC5)[C@H](O)[C@@H](O)[C@@H]3O)O[C@@H]2CO)[C@H](O)[C@H](O)[C@H]1O [Compound 9, hederasaponin D]
[1]
  EC50: 36.9 ± 4.4 nM

## COc1cc(CNC(=O)CCCC/C=C/C(C)C)ccc1O [capsaicin]
[2]
  whole-cell patch clamp in rat DRG neurons, capsaicin concentration-response (0.0): Concentration dependent curves of TRPV1 currents induced by CAP in the presence or absence of C9.

## Oc1cc2c(cc1O)CN(C(=S)NCCc1ccc(Cl)cc1)CCC2 [capsazepine]
[3]
  whole-cell patch clamp of capsaicin-induced currents in rat DRG neurons, single: The recorded current was almost completely suppressed by capsazepine (CPZ), proving that it was the CAP-induced TRPV1 current.
